Measured values reported in patent publication US4962096A, “Heterocyclic glycerol derivatives and their use as anti-hypertensive agents” (Nippon Chemiphar Co., Ltd., priority 1987, dated 1990).

Legend:
[1] = system: PAF-induced platelet aggregation; assay: Inhibitory effect on PAF-induced platelet aggregation; type: cell-based; details: rabbit PRP; PAF 1×10^-8 M, test concentration not readable
Experimental: In the same manner as above, a platelet rich plasma (PRP) and a platelet poor plasma (PPP) were prepared for performing the following experiment.
(§1) PRP was diluted with PPP to give a sample containing platelets at 300,000/mm^3.
10 μl of a test solution was added to 180 μl of PRP. To the resulting mixture was added 10 μl of a solution of a commercially available PAF (No.P-4904, available from Sigma Corp.) to give a concentration of 1×10^-8 M, and aggregation was observed. For the preparation of the test solution and the PAF solution, a saline solution containing 0.25% bovine serum albumin was employed.
The effect of the test sample for suppressing aggregation was obtained in terms of a degree of suppression of the maximum aggregation in the control PRP caused by the PAF.

[2] = system: Male Wistar rats; assay: Blood pressure reducing action: intravenous injection (MABP50); type: in vivo, rat; details: anesthetized male Wistar rats, injection in saline with 0.25% bovine serum albumin, from dose-response curve; for ED (50 mmHg): Rattus norvegicus, iv, read-out: MABP50 (dose required for reducing a mean blood pressure by 50 mmHg)
Experimental: Male Wistar rats (mean body weight: 420 g) were anesthetized by intraperitoneal injection of 50 mg/kg of pentobarbital sodium, and their blood pressures were measured at left femoral artery. Subsequently, a compound to be tested was dissolved in a saline solution containing 0.25% bovine serum albumin and injected into the rat through the right femoral artery.
A dose-response curve was prepared from the obtained values for each of the following compounds of the present invention to determine a dose required for reducing a mean blood pressure by 50 mmHg (MABP50).

[3] = system: platelet; assay: Platelet aggregation action in platelet rich plasma; type: cell-based; details: rabbit PRP, 300,000 platelets/mm^3, final concentration 2×10^-10 to 2×10^-4 M, unit inferred
Experimental: A male Japanese white rabbit was anesthetized by pentobarbital, and a blood was collected in aqueous 3.13% sodium citrate solution at its carotid. The blood containing 1/10 volume ratio of the sodium citrate solution was treated in a conventional manner to give a platelet rich plasma (PRP) and a platelet poor plasma (PPP) for performing the following experiment.
as §1
Aggregation of platelet was determined by means of Platelet Aggregation Tracer PAT-4A(available from Niko Bioscience Co., Ltd., Japan). 10 μl of a test solution was added to 190 μl of PRP to give a final concentration of 2×10^-10 to 2×10^-4 M, and an aggregation curve is recorded. For the preparation of the test solution, a saline solution containing 0.25% bovine serum albumin.
According to the aggregation curve obtained for each of the following compound of the present invention, following EC50 value was obtained.

[4] = system: Male spontaneously hypertensive rats; assay: Blood pressure reducing action: oral administration; type: in vivo, rat
Experimental: Male spontaneously hypertensive rats (average body weight: 359 g) were anesthetized with ether. Blood pressure was measured for each rat through cannulation at its left femoral artery. A compound to be tested was dissolved in a distilled water and the resulting aqueous solution was administered orally.

[5] = Oryctolagus cuniculus, Platelet

“2-Acetyloxy-3-hexadecyloxypropyl 1-(1-fluorophenyl)-2-methylisoquinolinio-3-ylmethyl phosphate” was tested, and the “degree of suppression of the maximum aggregation caused by the PAF” value (“degree” for short) [1] was 100%.
`CCCCCCCCCCCCCCCCOCC(COP(=O)([O-])OCC1CSC(c2ccccc2)[N+]1(C)C)OC(C)=O` (single isomer, unassigned) [S(Product A), 2-acetyloxy-3-hexadecyloxypropyl 3,3-dimethyl-2-phenyl-1,3-thiazolidinio-4-ylmethyl phosphate] was tested, and the “MABP50 (dose required for reducing a mean blood pressure by 50 mmHg)” value [2] was 0.16 µg/kg and the EC50 [3, 5] was 670 nM.
With `CCCCCCCCCCCCCCCCOCC(COP(=O)([O-])OCC1CSC(c2ccccc2)[N+]1(C)C)OC(C)=O` (single isomer, unassigned) [S(Product B), 2-acetyloxy-3-hexadecyloxypropyl 3,3-dimethyl-2-phenyl-1,3-thiazolidinio-4-ylmethyl phosphate] the “MABP50 (dose required for reducing a mean blood pressure by 50 mmHg)” value [2] was 0.35 µg/kg and the EC50 [3] was 740 nM.
`CCCCCCCCCCCCCCCCOCC(COP(=O)([O-])OC1C[N+]2(C)CCC1CC2)OC(C)=O` (stereo not drawn) [A, 2-acetyloxy-3-hexadecyloxypropyl 1-methyl-1-azoniabicyclo[2,2,2]-3-octyl phosphate] showed an ED (50 mmHg) [2] of 0.005 µg/kg and an EC50 [3, 5] of 0.76 nM.
Work on `CCCCCCCCCCCCCCCCOCC(COP(=O)([O-])OC1CC2CCC(C1)[N+]2(C)C)OC(C)=O` (stereo not drawn) [B, 2-acetyloxy-3-hexadecyloxypropyl endo-8,8-dimethyl-8-azoniabicyclo[3,2,1]-3-octyl phosphate] yielded an ED (50 mmHg) [2] of 0.12 µg/kg and an EC50 [3, 5] of 2.3 nM.
`CCCCCCCCCCCCCCCCOC(C)C(COP(=O)([O-])OC1C[N+]2(C)CCC1CC2)OC(C)=O` (stereo not drawn) [C, 2-acetyloxy-3-hexadecyloxybutyl 1-methyl-1-azoniabicyclo[2,2,2]-3-octylphosphate] was tested, and the ED (50 mmHg) [2] was 0.099 µg/kg, the “Change of Blood Pressure About 30 min. after Administration” value (“Change” below) ([4]; 3 mg/kg) was -64.5 mmHg and the EC50 [3, 5] was 5.2 nM.
`CCCCCCCCCCCCCCCCOCC(COP(=O)([O-])OCC1CCCC[N+]1(C)C)OC(C)=O` (stereo not drawn) [Compound E, 2-acetyloxy-3-hexadecyloxypropyl 1,1-dimethylpiperidinio-2-ylmethyl phosphate] gave an ED (50 mmHg) [2] of 0.132 µg/kg and an EC50 [3, 5] of 10 nM.
For `CCCCCCCCCCCCCCCCOCC(COP(=O)([O-])OCC1CCC[N+]1(C)C)OC(C)=O` (stereo not drawn) [D, 2-acetyloxy-3-hexadecyloxypropyl 1,1-dimethylpyrrolidinio-2-ylmethyl phosphate], the ED (50 mmHg) [2] was 0.024 µg/kg and the EC50 [3, 5] was 0.5 nM.
Work on `CCCCCCCCCCCCCCCCOCC(COP(=O)([O-])OCC1CCC[N+](C)(C)C1)OC(C)=O` (stereo not drawn) [F, 2-acetyloxy-3-hexadecyloxypropyl 1,1-dimethylpiperidinio-3-ylmethyl phosphate] yielded an ED (50 mmHg) [2] of 0.058 µg/kg and an EC50 [3, 5] of 1.5 nM.
In the case of `CCCCCCCCCCCCCCCCOCC(COP(=O)([O-])OCC1CC[N+](C)(C)CC1)OC(C)=O` (stereo not drawn) [G, 2-acetyloxy-3-hexadecyloxypropyl 1,1-dimethylpiperidinio-4-ylmethyl phosphate], the ED (50 mmHg) [2] is reported as 0.97 µg/kg and the EC50 [3, 5] is reported as 90 nM.
For `CCCCCCCCCCCCCCCCOCC(COP(=O)([O-])OCCC1CCC[N+]1(C)C)OC(C)=O` (stereo not drawn) [H, 2-acetyloxy-3-hexadecyloxypropyl 2-(1,1-dimethylpyrrolidinio-2-yl)ethylphosphate], the ED (50 mmHg) [2] was 0.058 µg/kg and the EC50 [3, 5] was 2.4 nM.
For `CCCCCCCCCCCCCCCCOC(C)C(COP(=O)([O-])OC(c1ccccc1)C1CCC[N+]1(C)C)OCc1ccccc1` (stereo not drawn) [I, 2-Benzyloxy-3-hexadecyloxybutyl erythro-1,1-dimethylpyrrolidinio-2-ylphenylmethyl phosphate], the “degree” value [1] was 100%.
In the case of `CCCCCCCCCCCCCCCCOCC(COP(=O)([O-])OC(c1ccccc1)C1CCC[N+]1(C)C)OCc1ccccc1` (stereo not drawn) [J, 2-Benzyloxy-3-hexadecyloxypropyl erythro-1,1-dimethylpyrrolidinio-2-ylphenylmethyl phosphate], the “degree” value [1] is reported as 99%.
For `CCCCCCCCCCCCCCCCOCC(COP(=O)([O-])OC(c1ccccc1)C1CCC[N+]1(C)C)OCc1ccccc1` (stereo not drawn) [K, 2-Benzyloxy-3-hexadecyloxypropyl threo-1,1-dimethylpyrrolidinio-2-ylphenylmethyl phosphate], the “degree” value [1] was 73%.
In the case of `CCCCCCCCCCCCCCCCOCC(COP(=O)([O-])OCC1CCCC[N+]1(C)C)OCc1ccccc1` (stereo not drawn) [L, 2-Benzyloxy-3-hexadecyloxypropyl 1,1-dimethylpiperidinio-2-ylmethyl phosphate], the “degree” value [1] is reported as 55%.
In the case of `CCCCCCCCCCCCCCCCOCC(COP(=O)([O-])OC(c1ccccc1)C1CCC[N+]1(C)C)OC(C)=O` (stereo not drawn) [M, 2-Acetyloxy-3-hexadecyloxypropyl erythro-1,1-dimethylpyrrolidinio-2-ylphenylmethyl phosphate], the “degree” value [1] is reported as 100%.
With `CCCCCCCCCCCCCCCCOCC(COP(=O)([O-])OCC1Cc2ccccc2C[N+]1(C)C)OC(C)=O` (stereo not drawn) [O, 2-acetyloxy-3-hexadecyloxypropyl 2,2-dimethyl-1,2,3,4-tetrahydroisoquinolinio-3-ylmethyl phosphate] the ED (50 mmHg) [2] was 3.2 µg/kg and the EC50 [3, 5] was 180 nM.
Work on `CCCCCCCCCCCCCCCCOCC(COP(=O)([O-])OCC1CCc2ccccc2[N+]1(C)C)OC(C)=O` (stereo not drawn) [P, 2-acetyloxy-3-hexadecyloxypropyl 1,1-dimethyl-1,2,3,4-tetrahydroquinolinio-2-ylmethyl phosphate] yielded an ED (50 mmHg) [2] of 0.11 µg/kg and an EC50 [3, 5] of 50 nM.
For `CCCCCCCCCCCCCCCCOCC(COP(=O)([O-])OCC1CSC[N+]1(C)C)OC(C)=O` (stereo not drawn) [Q, 2-acetyloxy-3-hexadecyloxypropyl 3,3-dimethyl-1,3-thiazolidinio-4-ylmethyl phosphate], the ED (50 mmHg) [2] was 0.032 µg/kg and the EC50 [3, 5] was 0.52 nM.
Work on `CCCCCCCCCCCCCCCCOCC(COP(=O)([O-])OCC1=CCC[N+](C)(C)C1)OC(C)=O` (stereo not drawn) [R, 2-acetyloxy-3-hexadecyloxypropyl 1,1-dimethyl-1,2,5,6-tetrahydropyridinio-3-ylmethyl phosphate] yielded an ED (50 mmHg) [2] of 0.024 µg/kg.
For `CCCCCCCCCCCCCCCCOCC(COP(=O)([O-])OCCc1sc[n+](C)c1C)OC(C)=O` (stereo not drawn) [T, 2-acetyloxy-3-hexadecyloxypropyl 3,4-dimethylthiazolio-5-ylethyl phosphate], the ED (50 mmHg) [2] was 0.00023 µg/kg, the “Change” value ([4]; 10 mg/kg) was -35.3 mmHg and the EC50 [3, 5] was 3.2 nM.
In the case of `CCCCCCCCCCCCCCCCOCC(COP(=O)([O-])OCCc1ccc[n+](C)c1)OC(C)=O` (stereo not drawn) [U, 2-acetyloxy-3-hexadecyloxypropyl 1-methylpyridinio-3-ylethyl phosphate], the “MABP50 (dose required for reducing a mean blood pressure by 50 mmHg)” value [2] is reported as 0.195 µg/kg and the EC50 [3] is reported as 85 nM.
With `CCCCCCCCCCCCCCCCOC(C)C(COP(=O)([O-])OCC1=CCC[N+](C)(C)C1)OC(C)=O` (stereo not drawn) [V, 2-acetyloxy-3-hexadecyloxybutyl 1,1-dimethyl-1,2,5,6-tetrahydropyridinio-3-ylmethyl phosphate] the ED (50 mmHg) [2] was 0.64 µg/kg, the “Change” value ([4]; 3 mg/kg) was -49.0 mmHg and the EC50 [3, 5] was 77 nM.
`CCCCCCCCCCCCCCCCOC(C)C(COP(=O)([O-])OCCc1sc[n+](C)c1C)OC(C)=O` (stereo not drawn) [W, 2-acetyloxy-3-hexadecyloxybutyl 3,4-dimethylthiazolio-5-ylethyl phosphate] was tested, and the ED (50 mmHg) [2] was 0.067 µg/kg, the “Change” value ([4]; 1 mg/kg) was -36.0 mmHg and the EC50 [3, 5] was 73 nM.
